Source: article PMC9734138, “Structure of the AlgKX modification and secretion complex required for alginate production and biofilm attachment in Pseudomonas aeruginosa” (Nature Communications, 2022)
Values joined by “and” are separate entries in the source; they are usually repeats but may differ in a detail not shown here. Identical values can stand only once.

Assays:
[1] = target: T1, AlgXPp (Pseudomonas putida, UniProt Q88ND0); test: Direct ESI-MS alginate binding assay, AlgXPp; design: His6 (C); made in house; host or cells: E. coli Lemo21 (DE3); conditions: 200 mM aqueous ammonium acetate, pH 7, 25 °C, errors one standard deviation
Protocol: (§1) AlgXPp and AlgKPp stock solutions were buffer exchanged into 200 mM aqueous ammonium acetate (pH 7) using a 10 kDa cut-off Amicon 0.5 mL microconcentrators (EMD, Millipore, Billerica, MA). Stock solutions of oligosaccharides were prepared by dissolving a known amount of solid compound in Milli-Q water and stored at −20 °C until used. Nanoelectrospray (nanoESI) mass spectrometry measurements were performed on a Q Exactive Orbitrap (Orbitrap) mass spectrometer (Thermo Fisher Scientific, Bremen, Germany) and on a Q Exactive Ultra-High Mass Range Orbitrap mass spectrometer (Thermo Fisher Scientific, Bremen, Germany), both equipped with a nanoflow ESI source. […]
(§2) Association constants (Ka,kL and Ka,xL) for interactions of AlgKPp and AlgXPp with oligosaccharide ligands were obtained using the direct ESI-MS assay[68],[69]. […] Ka,kL and Ka,xL values were determined from the abundance ratio (R) of the ligand-bound (PL) to free protein (P) ions (P can be AlgKPp or AlgXPp), after correction for nonspecific ligand binding, and the initial concentrations of protein ([P]0) and ligand ([L]0), Eq. (1):1 R/R+1=KaP0+KaL0+1−(1−KaL0+KaP0)^2+4KaL0/2KaP0 where R is taken to be equal to the corresponding equilibrium concentration ratio ([PL]/[P]) in solution, Eq. (2):2 R=∑Ab(PL)/∑Ab(P)=[PL]/[P] and Ka is Ka,kL or Ka,xL.
Target sequence in this assay (Q88ND0 25-479): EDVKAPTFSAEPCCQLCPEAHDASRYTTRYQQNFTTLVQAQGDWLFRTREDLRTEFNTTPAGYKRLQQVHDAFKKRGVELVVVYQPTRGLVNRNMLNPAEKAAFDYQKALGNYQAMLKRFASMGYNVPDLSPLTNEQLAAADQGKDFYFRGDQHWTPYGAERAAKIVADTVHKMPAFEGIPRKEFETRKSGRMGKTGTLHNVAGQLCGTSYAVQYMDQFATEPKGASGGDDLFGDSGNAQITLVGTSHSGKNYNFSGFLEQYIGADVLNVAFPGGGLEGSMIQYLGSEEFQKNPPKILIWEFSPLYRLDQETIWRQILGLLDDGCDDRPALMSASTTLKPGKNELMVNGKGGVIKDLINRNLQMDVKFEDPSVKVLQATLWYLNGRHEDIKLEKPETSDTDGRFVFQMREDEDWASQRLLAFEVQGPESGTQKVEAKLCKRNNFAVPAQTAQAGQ

[2] = target: T2, AlgKPp (Pseudomonas putida, UniProt Q88NC7); test: Direct ESI-MS alginate binding assay, AlgKPp; design: Induced cells containing either pET26b P. putida AlgK^33–484 or pET24b P. putida AlgX^∆Nterm; His6 (C); made in house; host or cells: E. coli BL21 (DE3) CodonPlus; conditions: 200 mM aqueous ammonium acetate, pH 7, 25 °C, errors one standard deviation, nb = no binding detected
Protocol: as §1, §2

[3] = target: T3, AlgKXPp complex (Pseudomonas putida, UniProt Q88NC7+Q88ND0); test: ESI-MS alginate binding assay, AlgKXPp complex (binding model fit); conditions: for Ka (M^−1) (AlgKXPp), apparent association constant: ESI-MS, 200 mM aqueous ammonium acetate, pH 7, 25 °C, errors one standard deviation; for fraction of AlgKXPp bound to ligand: ammonium acetate (200 mM, pH 7.0), mean, n = 3
T3 construct: Induced cells containing either pET26b P. putida AlgK^33–484 or pET24b P. putida AlgX^∆Nterm; His6 (C); made in house; host or cells: E. coli BL21 (DE3) CodonPlus (AlgK) and E. coli Lemo21 (DE3) (AlgX)
Protocol: (§3) AlgXPp and AlgKPp stock solutions were buffer exchanged into 200 mM aqueous ammonium acetate (pH 7) using a 10 kDa cut-off Amicon 0.5 mL microconcentrators (EMD, Millipore, Billerica, MA). Stock solutions of oligosaccharides were prepared by dissolving a known amount of solid compound in Milli-Q water and stored at −20 °C until used. Nanoelectrospray (nanoESI) mass spectrometry measurements were performed on a Q Exactive Orbitrap (Orbitrap) mass spectrometer (Thermo Fisher Scientific, Bremen, Germany) and on a Q Exactive Ultra-High Mass Range Orbitrap mass spectrometer (Thermo Fisher Scientific, Bremen, Germany), both equipped with a nanoflow ESI source. NanoESI was performed by applying a voltage of ~0.8 kV to a platinum wire inserted into the nanoESI tip, which was produced from a borosilicate glass capillary (1.0 mm o.d., 0.78 mm i.d.) pulled to ~2 μm o.d. using a P − 1000 micropipette puller (Sutter Instruments, Novato, CA). The inlet capillary of the MS was heated to 120 °C, the S-lens RF level was set at 100, automatic gain control target was set at 1 × 10^6 with a maximum injection time of 200 ms. All MS data were acquired and processed using Thermo Xcalibur 4.1 software.
(§4) 3b AlgXPpL⇌AlgXPp+L,Ka,xL=[AlgXPpL]/AlgXPp[L] 3c AlgKXPp⇌AlgKPp+AlgXPp,Ka,kx=[AlgKXPpL]/AlgKPp[AlgXPp] 3d AlgKXPpL⇌AlgKXPp+L,Ka,kxL=[AlgKXPL]/AlgKXPpLL
(§5) The corresponding mass balance equations are shown below:4a [L]0=[L]+[AlgKPpL]+[AlgXPpL]+[AlgKXPpL] 4b [AlgKPp]0=[AlgKPp]+[AlgKPpL]+[AlgKXPp]+[AlgKXPpL] 4c [AlgXPp]0=[AlgXPp]+[AlgXPpL]+[AlgKXPp]+[AlgKXPpL] where […], […], and [L]0 are initial concentrations of AlgKPp, AlgXPp, and oligosaccharide ligand L; Ka,kL, Ka,xL, and Ka,kx are association constant values determined as described above, and Ka,kxL is unknown parameter found by the fitting of the model to experimental data.

[4] = target: T1, AlgXPp; test: Direct nanoESI-MS binding assay of the single proteins with reference protein correction for nonspecific binding, 200 mM aqueous ammonium acetate pH 7, 25 °C by the table title (21 °C in the methods).; design: gene algX; conditions: read-out: Ka (M^-1) (AlgKPp); Ka (M^-1) (AlgXPp)
Protocol: as §3
(§6) Association constants (Ka,kL and Ka,xL) for interactions of AlgKPp and AlgXPp with oligosaccharide ligands were obtained using the direct ESI-MS assay[68],[69]. The binding measurements were carried out at 21 °C, and the equilibrium mixtures were prepared by mixing aliquots of the stock solutions of proteins and ligands in aqueous ammonium acetate (200 mM). ESI-MS measurements were performed after a 1 h incubation time period. All mass spectra were corrected, when needed, for the occurrence of nonspecific carbohydrate-protein binding during the ESI process using the reference protein method. Ka,kL and Ka,xL values were determined from the abundance ratio (R) of the ligand-bound (PL) to free protein (P) ions (P can be AlgKPp or AlgXPp), after correction for nonspecific ligand binding, and the initial concentrations of protein ([P]0) and ligand ([L]0), Eq. (1):1 R/R+1=KaP0+KaL0+1−(1−KaL0+KaP0)^2+4KaL0/2KaP0 where R is taken to be equal to the corresponding equilibrium concentration ratio ([PL]/[P]) in solution, Eq. (2):2 R=∑Ab(PL)/∑Ab(P)=[PL]/[P] and Ka is Ka,kL or Ka,xL.
Target sequence in this assay (Q88ND0 whole entry): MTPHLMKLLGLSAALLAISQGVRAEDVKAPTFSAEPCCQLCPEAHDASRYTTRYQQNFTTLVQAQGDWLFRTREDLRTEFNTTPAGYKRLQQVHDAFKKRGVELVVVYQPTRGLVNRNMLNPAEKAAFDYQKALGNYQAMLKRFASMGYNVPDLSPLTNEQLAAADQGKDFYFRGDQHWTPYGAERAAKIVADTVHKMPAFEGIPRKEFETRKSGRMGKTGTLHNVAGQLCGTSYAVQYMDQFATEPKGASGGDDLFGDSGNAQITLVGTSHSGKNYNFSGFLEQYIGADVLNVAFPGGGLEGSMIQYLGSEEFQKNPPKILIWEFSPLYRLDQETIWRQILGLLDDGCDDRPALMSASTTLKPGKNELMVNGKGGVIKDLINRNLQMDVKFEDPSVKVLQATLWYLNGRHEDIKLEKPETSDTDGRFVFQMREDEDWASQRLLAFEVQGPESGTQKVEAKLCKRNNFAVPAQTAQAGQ

[5] = target: AlgKXPp (Pseudomonas putida, UniProt Q88NC7+Q88ND0); test: NanoESI-MS ligand titration of the AlgK-AlgX mixture, Ka,kxL fitted from the ligand-bound fraction of the complex with a coupled-equilibria model, 200 mM aqueous ammonium acetate pH 7, 25 °C by the table title (21 °C in the methods).; type: binding; conditions: n = 3; read-out: Ka (M^-1) (AlgKXPp)
Protocol: as §3
The Ka,kx for the interaction of AlgKPp and AlgXPp with the formation of AlgKXPp complex was obtained using the Slow Mixing Mode (SLOMO) ESI-MS assay. Briefly, ~2 µL of a solution of AlgXPp (5 µM) and AlgKPp (3–10 µM) was introduced into the nanoESI tip, followed by injection of 10 µL of solution of AlgXPp (5 µM) and AlgKPp (45 µM). The binding measurements were carried out at 21 °C; time-resolved mass spectra were averaged over 1 min intervals and the sum of the charge state-normalized abundances of the […] and AlgKXPp complex ions were calculated automatically using the SWARM software (https://github.com/pkitov/CUPRA-SWARM)[72]. The corrected (for response factors) abundances of AlgXPp and AlgKXPp species were used to calculate R/(R+1) values for AlgKPp (designated as L) and AlgXPp (designated as P) interaction and association constant Ka,kx was found using Eq. (1) (Ka,kx in this case designated as Ka in Eq. (1)).
as §4, §5

[6] = target: T2, AlgKPp; test: Direct nanoESI-MS binding assay of the single proteins with reference protein correction for nonspecific binding, 200 mM aqueous ammonium acetate pH 7, 25 °C by the table title (21 °C in the methods).; design: gene algK; conditions: read-out: Ka (M^-1) (AlgKPp); Ka (M^-1) (AlgXPp)
Protocol: as §3, §6

[7] = target: T1, AlgXPp; test: Acetylesterase activity assay, pNP-acetate, AlgXPp; type: biochemical; design: His6 (C); made in house; host or cells: E. coli Lemo21 (DE3); conditions: pNP-acetate pseudosubstrate; sample as labelled (AlgX alone, Man10 alone, AlgX+Man10); single technical replicates
Protocol: (§7) The assay was performed as previously described in refs. [19], [29] with minor modifications. Briefly, standard reactions contained 5 μM protein (AlgKPp, AlgXPp, or AlgKPp-AlgXPp complex) in 50 mM sodium HEPES pH 7.0 and 75 mM NaCl. Reactions were initiated with the addition of pNP-acetate dissolved in ethanol to 2.5 mM. Alginate substrates were added at a final concentration of 0.5 mg/mL. Alginate substrates were purified as previously described[62] from FRD1[66] and FRD462[67]. The hydrolysis and removal of an acetate group from pNP-acetate was monitored in real-time for 10 min at 405 nm for the appearance of p-nitrophenyl. The background hydrolysis rate of pNP-acetate in the absence of enzymes was measured and subtracted from reaction rates. For Supplementary Fig. 11b, a similar assay was performed as previously described in ref. [19], with minor modifications. Briefly, Briefly, standard reactions contained 5 μM protein (AlgKPp, AlgXPp, or AlgKPp-AlgXPp complex) in 50 mM sodium HEPES pH 7.0 and 75 mM NaCl. […] The hydrolysis and removal of an acetate group from 3-carboxyumbelliferyl acetate was monitored in real-time for 10 min using an excitation of 386 nm and an emission of 447 nm. The background hydrolysis rate of 3-carboxyumbelliferyl acetate in the absence of enzymes was measured and subtracted from reaction rates. Data were analysed using GraphPad Prism 9 (Dotmatics).
Target sequence in this assay (Q88ND0 25-479): as the sequence (Q88ND0 25-479) above

[8] = target: T1, AlgXPp; test: Acetylesterase activity assay, 3-carboxyumbelliferyl acetate, AlgX; type: biochemical; design: His6 (C); made in house; host or cells: E. coli Lemo21 (DE3); conditions: AlgX alone; linear regression of raw values minus buffer blank vs time (s); exp1 and exp2, triplicates; Supp. Fig. 14b
Protocol: as §7
Target sequence in this assay (Q88ND0 25-479): as above

[9] = initial ligand concentration 50 µM
[10] = initial ligand concentration 100 µM
[11] = initial ligand concentration 155 µM
[12] = initial ligand concentration 211 µM
[13] = initial ligand concentration 265 µM
[14] = initial ligand concentration 322 µM

T2 sequence (Q88NC7 33-484): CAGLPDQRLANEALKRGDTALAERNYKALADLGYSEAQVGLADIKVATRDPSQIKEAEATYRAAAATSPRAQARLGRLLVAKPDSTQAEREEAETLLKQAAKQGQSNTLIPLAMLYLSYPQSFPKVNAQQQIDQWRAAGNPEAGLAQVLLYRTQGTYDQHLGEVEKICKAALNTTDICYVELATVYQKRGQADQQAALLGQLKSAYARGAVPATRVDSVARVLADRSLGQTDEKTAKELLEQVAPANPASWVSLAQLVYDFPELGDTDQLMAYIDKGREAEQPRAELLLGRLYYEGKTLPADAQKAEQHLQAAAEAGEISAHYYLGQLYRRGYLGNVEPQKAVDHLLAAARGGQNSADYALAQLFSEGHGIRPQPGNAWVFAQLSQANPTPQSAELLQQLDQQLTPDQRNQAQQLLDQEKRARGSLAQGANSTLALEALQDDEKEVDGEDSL
T3 sequence (Q88ND0 25-479): as the sequence (Q88ND0 25-479) above
T3 sequence (Q88NC7 33-484): as the sequence (Q88NC7 33-484) above
Sequence of AlgKXPp (Q88ND0 whole entry): as the sequence (Q88ND0 whole entry) above
Sequence of AlgKXPp (Q88NC7 33-484): as the sequence (Q88NC7 33-484) above

Molecule	Ka (M^−1) (AlgXPp), apparent association constant [1]	Ka (M^−1) (AlgKPp), apparent association constant [2]	Ka (M^−1) (AlgKXPp), apparent association constant [3]	fraction of AlgKXPp bound to ligand [3, 9]	fraction of AlgKXPp bound to ligand [3, 10]	fraction of AlgKXPp bound to ligand [3, 11]	fraction of AlgKXPp bound to ligand [3, 12]	fraction of AlgKXPp bound to ligand [3, 13]	fraction of AlgKXPp bound to ligand [3, 14]	Kd [4]	Kd [5]	Kd [6]	slope values: rate of acetylesterase activity, absorbance value at 405 nm per second [7]	slope values used in graph [8]
CCCO[C@@H]1O[C@H](C(=O)O)[C@@H](O[C@@H]2O[C@H](C(=O)O)[C@@H](O[C@@H]3O[C@H](C(=O)O)[C@@H](O[C@@H]4O[C@H](C(=O)O)[C@@H](O[C@@H]5O[C@H](C(=O)O)[C@@H](O[C@@H]6O[C@H](C(=O)O)[C@@H](O[C@@H]7O[C@H](C(=O)O)[C@@H](O)[C@H](O)[C@@H]7O)[C@H](O)[C@@H]6O)[C@H](O)[C@@H]5O)[C@H](O)[C@@H]4O)[C@H](O)[C@@H]3O)[C@H](O)[C@@H]2O)[C@H](O)[C@@H]1O [ManA7]	(2.6 ± 0.3) × 10^2 M^−1	(4.2 ± 0.4) × 10^2 M^−1	(10 ± 1.0) × 10^2 M^−1	0.028	0.08	0.15	0.20	0.21	0.24	–	–	–	–	–
CCCO[C@@H]1O[C@H](C(=O)O)[C@@H](O[C@@H]2O[C@H](C(=O)O)[C@@H](O[C@@H]3O[C@H](C(=O)O)[C@@H](O[C@@H]4O[C@H](C(=O)O)[C@@H](O[C@@H]5O[C@H](C(=O)O)[C@@H](O[C@@H]6O[C@H](C(=O)O)[C@@H](O)[C@H](O)[C@@H]6O)[C@H](O)[C@@H]5O)[C@H](O)[C@@H]4O)[C@H](O)[C@@H]3O)[C@H](O)[C@@H]2O)[C@H](O)[C@@H]1O [ManA6]	(1.9 ± 0.7) × 10^2 M^−1	(3.1 ± 0.5) × 10^2 M^−1	(7.8 ± 0.8) × 10^2 M^−1	0.04	0.08	0.11	0.11	0.16	0.22	5.26 mM	1.28 mM	3.23 mM	–	–
AlgX: P. putida KT2440 AlgX 1–479, His-tagged terminal alginate acetyltransferase	–	–	–	–	–	–	–	–	–	–	–	–	5.128e-5 and 6.734e-5 and 4.103e-5	20818 and 20884 and 19338 and 14321 and 14083 and 15487
